Data from ChEMBL document CHEMBL4665768, “Monacycliones G-K and ent-Gephyromycin A, Angucycline Derivatives from the Marine-Derived Streptomyces sp. HDN15129” (J Nat Prod, 2020).
Structures can show the parent of a compound that is named as a salt.

Assays:
K562 = test: Cytotoxicity against human K562 cells assessed as reduction in cell viability by MTT assay; format: functional, cell-based
SH-SY5Y = test: Cytotoxicity against human SH-SY5Y cells assessed as reduction in cell viability by SRB assay; format: functional, cell-based
PC-3 = test: Cytotoxicity against human PC-3 cells assessed as reduction in cell viability by SRB assay; format: functional, cell-based
HCT-116 = test: Cytotoxicity against human HCT-116 cells assessed as reduction in cell viability by SRB assay; format: functional, cell-based
U-87 MG = test: Cytotoxicity against human U87 cells assessed as reduction in cell viability by SRB assay; format: functional, cell-based, U-87MG ATCC
ASPC1 = test: Cytotoxicity against human ASPC1 cells assessed as reduction in cell viability by SRB assay; format: functional, cell-based
Bel-7402 = test: Cytotoxicity against human Bel-7402 cells assessed as reduction in cell viability by SRB assay; format: functional, cell-based
HL-60 = test: Cytotoxicity against human HL-60 cells assessed as reduction in cell viability by MTT assay; format: functional, cell-based

SMILES | IC50 (K562) [µM] | IC50 (SH-SY5Y) [µM] | IC50 (PC-3) [µM] | IC50 (HCT-116) [µM] | IC50 (U-87 MG) [µM] | IC50 (ASPC1) [µM] | IC50 (Bel-7402) [µM] | IC50 (HL-60) [µM]
CN[C@H]1CC[C@H](c2ccc3c(c2O)C(=O)c2cc(SC)c4cc(C)cc(O)c4c2C3=O)O[C@H]1C | > 10 | > 10 | > 10 | > 10 | > 10 | > 10 | > 10 | 7.6
CSc1cc2c(c3c1C[C@@](C)(O)CC3=O)C(=O)c1ccc([C@H]3CC[C@H](N(C)C)[C@H](C)O3)c(O)c1C2=O | 7.1 | 4.3 | 7.7 | 10 | 7.9 | 7.1 | 10 | 3.5
COc1cccc2c1C(=O)c1c(O)c3c(c(O)c1C2=O)C[C@@](O)(C(=O)CO)C[C@@H]3O[C@H]1C[C@H](N)[C@H](O)[C@H](C)O1 [DOXORUBICIN HYDROCHLORIDE] |  | 0.5 | 0.2 |  | 0.2 | 0.2 | 0.3 | 
